Data reported in publication PMC10382259, “Efficacy and Safety of Elamipretide in Individuals With Primary Mitochondrial Myopathy” (Neurology, 2023).
Entries after “also recorded” stand apart in the source; their conditions may differ.

Columns and labels:
[1] = system: participants with primary mitochondrial myopathy (PMM); test: MMPOWER-3 overall outcome on primary and secondary efficacy endpoints; type: in vivo, human; conditions: 40 mg/d SC, 24 weeks, vs placebo
Description: Coprimary endpoints evaluated the effect of elamipretide for 24 weeks including the distance walked (in meters) on the 6MWT and the total fatigue score on the Primary Mitochondrial Myopathy Symptom Assessment (PMMSA), previously described in detail.[31] The full PMMSA assesses the severity of 10 of the most common symptoms of PMM using the following 4-point scale (not at all[1] to severe; described later). PMMSA total fatigue score (TFS) focuses on myopathic symptoms most commonly associated with PMM (severity of tiredness and muscle weakness at rest and during activities, as described by participants). […]
Other secondary endpoints included the patient global impression (PGI) and clinician global impression (CGI) of PMM symptoms. PGI and CGI assess patient and clinician overall assessment of the severity of patients' symptoms related to PMM on a 5-point scaled question scored 0 to 4 (0 = none, 1 = mild, 2 = moderate, 3 = severe, and 4 = very Severe) and changes to their symptoms on a 7-point scale scored −3 to 3 (−3 = very much worse, −2 = moderately worse, −1 = a little worse, 0 = no change, 1 = a little better, 2 = moderately better, and 3 = very much better).
Primary and secondary efficacy outcomes were assessed as the change from baseline to each on-treatment time point with the primary time point being end of treatment (week 24). […]

[2] = system: participants with primary mitochondrial myopathy (PMM); test: Primary Mitochondrial Myopathy Symptom Assessment (PMMSA) total fatigue score, MMPOWER-3; type: in vivo, human
Procedure: (§1) MMPOWER-3 was a 24-week , randomized, double-blind, parallel-group, placebo-controlled clinical trial for adults with PMM conducted at 27 clinical research centers in 7 countries (Canada, Denmark, England, Germany, Hungary, Italy, and the United States).
(§2) After screening (7–28 days), eligible participants were randomized in a 1:1 ratio to receive either 24-weeks of once-daily SC dosing of 40 mg of elamipretide or placebo. Study drug or placebo was self-administered subcutaneously by trained participants or their caregivers, at rotating sites around 4 quadrants of the abdomen or the thighs. Treatment began at the baseline visit with assessments at weeks 4, 12, and 24.
(§3) Coprimary endpoints evaluated the effect of elamipretide for 24 weeks including the distance walked (in meters) on the 6MWT and the total fatigue score on the Primary Mitochondrial Myopathy Symptom Assessment (PMMSA), previously described in detail.[31] The full PMMSA assesses the severity of 10 of the most common symptoms of PMM using the following 4-point scale (not at all[1] to severe; described later). PMMSA total fatigue score (TFS) focuses on myopathic symptoms most commonly associated with PMM (severity of tiredness and muscle weakness at rest and during activities, as described by participants).
The PMMSA was performed during screening, baseline, and daily throughout the 24-week study period. Other efficacy endpoints were performed at screening, baseline, and at weeks 4, 12, and 24 of randomized treatment.
(§4) Efficacy was assessed in the intention-to-treat (ITT) population, defined as all participants who received at least 1 dose of investigational medication, and the per-protocol (PP) population, which included all ITT participants without defined protocol violations/deviations identified per blinded data review before database lock. These protocol violations/deviations included not meeting inclusion/exclusion criteria or having a selected major protocol deviation deemed to potentially affect efficacy findings; not completing the study; not receiving investigational treatment within 2 days before the week 24 visit; having <80% compliance to investigational product; and not completing the study. Safety was assessed in the safety population, defined as all participants who received at least 1 dose of investigational medication.
(§5) Primary and secondary efficacy outcomes were assessed as the change from baseline to each on-treatment time point with the primary time point being end of treatment (week 24). Analyses of continuous endpoints were conducted using a mixed-model repeated measures approach, with fixed effects for treatment, visit, the treatment-by-visit interaction, and participant as a random effect. The baseline value and a baseline-by-visit interaction for the endpoint were included as covariates. A family-wise alpha level of 0.05 was maintained for the primary endpoints, using Hochberg procedure at the primary time point of 24 weeks. […] If not, the endpoint with the smaller p value of the 2 was considered statistically significant if the p value was ≤0.025 (2-sided ).
(§6) Given the extensive genetic heterogeneity of the study population, an exploratory analysis of genetic subgroups by genomic alteration (mtDNA and nDNA) was performed using the same methods as described for the primary efficacy endpoints earlier (ITT population using similar mixed-model repeated measure [MMRM] models).

[3] = Population pharmacokinetic and exposure-response analysis (NONMEM), MMPOWER-3; type: in vivo, human
Procedure: The PK population included 106 participants randomized and treated with elamipretide, with at least 1 PK sample taken during their participation. PK modeling for elamipretide and its metabolites, M1 and M2, were performed using NONMEM computer software. Covariates, such as age, genotype, weight, height, lean body mass, body mass index, liver function tests, serum creatinine, and renal function (as described by estimated glomerular filtration rate [eGFR]) were analyzed. The exposure-response analysis examined response based on the 6MWT as a function of steady-state exposure to elamipretide and its metabolites.

[4] = cited from earlier work
Description: Elamipretide is an investigational mitochondrial-targeting agent in development for treating patients with a variety of mitochondrial diseases.[10][-][13] Elamipretide is a water-soluble, aromatic, cationic, mitochondria-targeting tetrapeptide that readily penetrates and transiently localizes to the inner mitochondrial membrane where it associates with cardiolipin to improve membrane stability and restore supercomplex formation, thereby enhancing adenosine triphosphate synthesis in several organs including the heart, kidney, neurons, and skeletal muscle, and reduce reactive oxygen species (ROS ...

[5] = system: participants with primary mitochondrial myopathy (PMM); test: 6-minute walk test (6MWT), MMPOWER-3 phase 3 trial; type: in vivo, human
Procedure: as §1, §2, §3, §4, §5, §6
Because of a potential data entry error, which was later identified in post hoc data analysis, 3 participants were misclassified in the clinical study report as having a pathogenic mtDNA variant. […] Accordingly, these participants were moved from the mtDNA group into the nDNA cohort for the included genetic alteration analyses. 6MWT for 1 participant at week 24 was deemed unusable because the participant inadvertently received walking assistance and was therefore not included in the 6MWT analyses. Study protocol and statistical analysis plan were published on ClinicalTrials.gov updated on January 24th 2022 (NCT03323749).[32]

[6] = system: participants with primary mitochondrial myopathy (PMM); test: Safety and tolerability (adverse events), MMPOWER-3; type: in vivo, human
Procedure: Safety and tolerability of elamipretide at a dose of 40 mg/d SC were assessed through recording of adverse events (AEs), ascertained through self-report, vital signs, physical examination, ECGs, and clinical laboratory evaluations. Adverse events were assessed for severity and relationship to study medication throughout the 24-week study. Safety measures were assessed during screening, baseline and weeks 4, 12, and 24.
as §4

[7] = 40 mg/d SC, 24 weeks, listed as Elamipretide
[8] = AEs reported by ≥ 5% of participants in either group, n = 109, 40 mg/d SC, 24 weeks
[9] = safety population n = 109, 40 mg/d SC, 24 weeks

## elamipretide
[1]
  Overall outcome on efficacy endpoints (6MWT, PMMSA TFS, secondary endpoints) versus placebo: did not improve outcomes in the 6MWT and PMMSA TFS; also recorded: did not meet either primary or secondary endpoints; also recorded: did not demonstrate statistically significant changes on the primary endpoints
[2]; ITT population, 40 mg/d SC, 24 weeks, 95% CI −0.69 to 0.54, p = 0.81
  Difference between elamipretide and placebo in LS mean change from baseline to week 24 on PMMSA total fatigue score: −0.07
[2]; ITT population, 40 mg/d SC, 24 weeks, MMRM, SEM
  LS mean (SE) of change from baseline to week 24 on the PMMSA total fatigue score: −1.13 (±0.22)
[2]; PP population, 40 mg/d SC, 24 weeks, 95% CI −0.54 to 0.72, p = 0.78
  Difference between elamipretide and placebo in change from baseline to week 24 on PMMSA total fatigue score, per-protocol analysis: 0.09
[2]; participants with mtDNA alteration, 40 mg/d SC, 24 weeks, SEM
  LS mean (SE) of change from baseline at week 24 on PMMSA TFS, mtDNA alteration subgroup: −1.3 (±0.2424)
[2]; participants with mtDNA alteration, 95% CI −0.9 to 0.5, p = 0.55
  Between-group difference in change from baseline at week 24 on PMMSA TFS, mtDNA alteration subgroup: −0.21
[2]; participants with nDNA alteration (post hoc analysis), 40 mg/d SC, 24 weeks, SEM
  LS mean (SE) of change from baseline at week 24 on PMMSA TFS, nDNA alteration subgroup: −0.45 (±0.25)
[2]; participants with nDNA alteration (post hoc), p = 0.93
  Between-group difference in change from baseline at week 24 on PMMSA TFS, nDNA alteration subgroup: 0.03
[3]; PK population 106 participants, NONMEM, systemic parameters scaled allometrically
  Covariate influence on systemic or absorption PK parameters (population PK model): No covariates influenced the systemic or absorption parameters
[3]; participants with an nDNA alteration, p = 0.0262 and p = 0.0345, respectively
  Exposure-response: 6MWT change and fractional change at week 24 vs day 1 as a function of elamipretide steady state area under the curve: increase; also recorded: statistically significant correlation
[4]
  Solubility in water (description): water-soluble
[5]; ITT population, 40 mg/d SC, 24 weeks, 95% CI −18.7 to 12.3, p = 0.69
  Difference between elamipretide and placebo in LS mean change from baseline in 6MWT distance at week 24: −3.2 meters
[5]; ITT population, elamipretide 40 mg/d SC once daily, 24 weeks, MMRM, SEM
  Least squares mean (SE) of change from baseline in distance walked on 6MWT at week 24: 14.1 (±5.7) meters
[5]; PP population, 40 mg/d SC, 24 weeks, 95% CI −16.9 to 12.5, p = 0.77
  Difference between elamipretide and placebo in change from baseline in 6MWT distance at week 24, per-protocol analysis: −2.2 meters
[5]; participants with mtDNA alteration (ITT), elamipretide n = 74, 40 mg/d SC, 24 weeks, SEM
  LS mean (SE) of change from baseline in 6MWT distance at week 24, mtDNA alteration subgroup: 14.0 (±6.1) meters
[5]; participants with mtDNA alteration, favoring placebo, 95% CI −28.1 to 6.1, p = 0.21
  Between-group difference in change from baseline in 6MWT distance at week 24, mtDNA alteration subgroup: −11.0 meters
[5]; participants with nDNA alteration (post hoc analysis), elamipretide n = 29, 40 mg/d SC, 24 weeks, SEM
  LS mean (SE) change from baseline in 6MWT distance at week 24, nDNA alteration subgroup: 25.5 (±8.0) meters
[5]; participants with nDNA alteration (post hoc), favoring elamipretide, 95% CI 3.1–47.3, p = 0.03
  Between-group difference in change from baseline in 6MWT distance at week 24, nDNA alteration subgroup: 25.2 meters
[6]; 40 mg/d SC, 24 weeks
  AE with an outcome of death or hospitalization: No participants
  Severity (intensity) of most adverse events: mild or moderate
  Tolerability of subcutaneous elamipretide: generally well tolerated
[6]; [7]
  Severity (intensity) of most adverse events: mild to moderate
  Tolerability of subcutaneous elamipretide: well-tolerated
[6]; [8]
  Diarrhea: 3 (2.8) n (%)
  Dizziness: 6 (5.5) n (%)
  Eosinophil count increased: 7 (6.4) n (%)
  Fall: 6 (5.5) n (%)
  Headache: 8 (7.3) n (%)
  Injection site bruising: 9 (8.3) n (%)
  Injection site erythema: 94 (86.2) n (%)
  Injection site hematoma: 0 n (%)
  Injection site hemorrhage: 7 (6.4) n (%)
  Injection site induration: 31 (28.4) n (%)
  Injection site mass: 9 (8.3) n (%)
  Injection site nodule: 11 (10.1) n (%)
  Injection site pain: 43 (39.4) n (%)
  Injection site pruritus: 82 (75.2) n (%)
  Injection site swelling: 42 (38.5) n (%)
  Injection site urticaria: 14 (12.8) n (%)
  Nasopharyngitis: 8 (7.3) n (%)
  Nausea: 5 (4.6) n (%)
  Upper respiratory tract infection: 7 (6.4) n (%)
[6]; elamipretide group, 40 mg/d SC, 24 weeks
  AEs reported as treatment-related AEs: 97.2%
[6]; n = 5/109, not deemed to be treatment related
  Percentage of participants with serious adverse events (SAEs): 4.6%
[6]; n = 8/109
  Incidence of AEs leading to discontinuation: 7.3%
[6]; n = 107/109, 40 mg/d SC, 24 weeks
  Percentage of participants reporting AEs during the treatment period: 98.2%
[6]; [9]
  Any AE: 107 (98.2) n (%)
  Any AE leading to treatment discontinuation: 8 (7.3) n (%)
  Any AE leading to treatment interruption: 13 (11.9) n (%)
  Any SAE: 5 (4.6) n (%)
  Any treatment-related AE: 106 (97.2) n (%)
  Any treatment-related SAE: 0 n (%)
  Death: 0 n (%)
